{
  "source": "ChEMBL document CHEMBL1201862",
  "about": "“PubChem BioAssay data set” (2004)",
  "key": {"[1]": {"target": "Mu-type opioid receptor (Homo sapiens, UniProt P35372)", "format": "functional, cell-based"}, "[2]": {"target": "5-hydroxytryptamine receptor 2A (Mus musculus, UniProt P35363)", "format": "functional, cell-based"}, "[3]": {"target": "Protein Wnt-3a (Mus musculus, UniProt P27467)", "assay": "SAR analysis of small molecule antagonists of Gli-SUFU in a Wnt3a luminescent reporter assay.", "format": "functional"}, "[4]": {"target": "1-phosphatidylinositol 4,5-bisphosphate phosphodiesterase gamma-1 (Homo sapiens, UniProt P19174)", "assay": "Counterscreen for inhibitors of phospholipase C isozymes (PLC-B3): Fluorescence-based biochemical high throughput dose response assay to identify inhibitors of phospholipase C isozymes (PLC-gamma1)."}, "[5]": {"target": "1-phosphatidylinositol 4,5-bisphosphate phosphodiesterase beta-3 (Homo sapiens, UniProt Q01970)", "assay": "Fluorescence-based biochemical high throughput dose response assay to identify inhibitors of phospholipase C isozymes (PLC-B3)."}, "[6]": {"assay": "blockers of HIV-1 envelope-mediated cell-cell fusion – cherry-pick, dose response (AID 652057)", "format": "functional, cell-based"}, "[7]": {"assay": "blockers of HIV-1 ZM109 envelope-driven cell-cell fusion – HeLa effector, CEM target cells, luciferase, cherry-pick, dose response (AID 652058)", "format": "functional, cell-based"}, "[8]": {"target": "Paired box protein Pax-8 (Homo sapiens, UniProt Q06710)", "assay": "PAX8 transcriptional activity inhibition in RMG-I – RMG-I cells, luciferase, cherry-pick, dose response (AID 687027);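 note: luciferase reporter driven by Pax8 target thyroperoxidase promoter measured by SteadyGlo luminescence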", "format": "functional, cell-based"}, "[9]": {"assay": "HIV-1 AD8 envelope cell-cell fusion blockers – cherry-pick, dose response (AID 652062);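 note: luciferase signal from cell-cell fusion driven by HIV-1 clade B AD8 Env; potency is for inhibitors of fusion seen as a drop in luminescence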", "format": "functional, cell-based"}, "[10]": {"assay": "inhibitors acting on PAX2 in cells – cell-based, plate reader, dry powder samples, selectivity assay for PAX8 inhibitor project, dose response (AID 743048);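 note: HEK293 cells carrying a WT1 promoter luciferase reporter driven by expressed Pax2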", "format": "functional"}, "[11]": {"assay": "PAX5 cellular inhibition readout – cell-based, plate reader, dry powder samples, selectivity assay for PAX8 inhibitor project, dose response (AID 743047);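 note: HEK293 cells carrying a Pax5 driven CD19 promoter luciferase reporter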", "format": "functional"}, "[12]": {"assay": "OVCAR4 cell viability loss – plate reader, dry powder, SA11, cytotoxicity control for PAX8 inhibitor project, dose response (AID 743150)", "format": "functional, cell-based", "conditions": "OVCAR-4"}, "[13]": {"assay": "COV434 cell viability loss – plate reader, dry powder, SA7, cytotoxicity control for PAX8 inhibitor project, dose response (AID 743145)", "format": "functional, cell-based"}, "[14]": {"assay": "PAX8-dependent cell viability loss – plate reader, dry powder, dose response (AID 743049)", "format": "functional, cell-based"}, "[15]": {"assay": "growth inhibition of yeast DHODH-expressing 3D7 parasites – SYBR Green, dry powder samples, dose response (AID 1159570);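 note: parasite growth measured after 72 hours of compound exposure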", "format": "functional, cell-based"}, "[16]": {"assay": "P. falciparum Dd2 growth inhibitors, dose response, SYBR Green, cherry-picked samples (AID 1159567)", "format": "functional, cell-based"}, "[17]": {"assay": "Dd2 malaria parasite growth inhibition potency – SYBR Green, dry powder samples, dose response (AID 1159566);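 note: potency for growth inhibition with lower SYBR green DNA signal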", "format": "functional, cell-based"}, "[18]": {"assay": "toxicity to human hepatoma HepG2 cells – cell-based, cherry-picked samples, cytotoxicity control, dose response (AID 1159577)", "format": "functional"}, "[19]": {"assay": "growth inhibition of PfATP4-mutant resistant parasites – NITD609-resistant line, SYBR Green, dry powder, dose response (AID 1159571);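 note: parasites synchronized at ring stage by sorbitol before testing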", "format": "functional, cell-based"}, "[20]": {"assay": "general mammalian cell viability loss – inhibitor set, cherry-pick, set 2, cytotoxicity control for miR-122 modulator project, dose response (AID 720697)", "format": "functional, cell-based"}, "[21]": {"assay": "Luminescence Cell-Based Dose Retest to Confirm Inhibitors of Cancer Stem Cells. [Related pubchem assays (depositor defined):AID2717, AID2721]", "format": "functional", "conditions": "Homo sapiens"}, "[22]": {"assay": "viability loss of HMLE_sh_eGFP cells – cell-based, luminescence, counter-screen for HMLE_sh_ECad selective toxicity project, dose response (AID 463074);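 note: HMLE human mammary epithelial cells expressing control shRNA against eGFP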", "format": "functional, Homo sapiens"}, "[23]": {"target": "T1, Probable nicotinate-nucleotide adenylyltransferase (Staphylococcus aureus (strain N315), UniProt P65502)", "format": "functional, Staphylococcus aureus subsp. aureus N315"}, "[24]": {"target": "T1, Probable nicotinate-nucleotide adenylyltransferase", "format": "functional, Staphylococcus aureus subsp. aureus N315", "conditions": "read-out: IC50_Mean"}, "[25]": {"target": "T2, Low molecular weight phosphotyrosine protein phosphatase (Homo sapiens, UniProt P24666)", "T2 sequence (P24666 whole entry)": "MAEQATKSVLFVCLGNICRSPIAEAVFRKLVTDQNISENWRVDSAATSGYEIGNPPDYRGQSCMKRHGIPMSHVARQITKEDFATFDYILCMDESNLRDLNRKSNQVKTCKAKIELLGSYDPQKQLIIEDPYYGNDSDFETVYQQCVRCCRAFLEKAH", "format": "functional", "conditions": "read-out: IC50_Mean"}, "[26]": {"target": "T2, Low molecular weight phosphotyrosine protein phosphatase", "format": "functional", "conditions": "read-out: IC50_Mean", "remark": "listed apart in the source"}, "[27]": {"target": "T3, Carboxy-terminal domain RNA polymerase II polypeptide A small phosphatase 1 (Homo sapiens, UniProt Q9GZU7)", "T3 sequence (Q9GZU7 whole entry)": "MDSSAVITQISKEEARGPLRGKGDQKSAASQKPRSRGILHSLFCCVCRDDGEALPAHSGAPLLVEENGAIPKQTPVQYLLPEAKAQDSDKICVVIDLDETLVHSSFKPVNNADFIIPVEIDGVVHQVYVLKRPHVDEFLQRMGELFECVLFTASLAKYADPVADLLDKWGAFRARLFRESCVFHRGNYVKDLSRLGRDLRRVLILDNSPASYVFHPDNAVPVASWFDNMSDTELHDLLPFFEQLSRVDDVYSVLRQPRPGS", "assay": "CTDSP1 inhibitors, concentration-response, biochemical, absorbance readout, ultra-high-throughput screen actives (AID 540297)", "format": "functional"}, "[28]": {"target": "Major prion protein (Homo sapiens, UniProt P04156)", "format": "functional, cell-based"}, "[29]": {"assay": "cells"}, "[30]": {"target": "T4, Sentrin-specific protease 8 (Homo sapiens, UniProt Q96LD8)", "T4 sequence (Q96LD8 whole entry)": "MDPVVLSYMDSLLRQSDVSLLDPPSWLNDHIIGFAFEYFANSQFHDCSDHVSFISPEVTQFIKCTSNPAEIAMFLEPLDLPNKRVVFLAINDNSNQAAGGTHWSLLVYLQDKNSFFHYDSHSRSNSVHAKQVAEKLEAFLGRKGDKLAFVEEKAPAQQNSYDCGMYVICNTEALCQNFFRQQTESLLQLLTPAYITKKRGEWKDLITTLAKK", "format": "functional"}, "[31]": {"target": "Caspase-6 (Homo sapiens, UniProt P55212)", "assay": "inhibition of CASP6 peptide cleavage – biochemical, VEID-R110 fluorescence, cherry-pick, dose response (AID 720632)"}, "[32]": {"assay": "A2780 cell killing – plate reader, dry powder samples, cytotoxicity control, dose response (AID 743046)", "format": "functional, cell-based"}, "[33]": {"assay": "OVCAR-3 cell viability loss – plate reader, dry powder samples, PAX8 inhibitor project, dose response (AID 743044)", "format": "functional, cell-based"}, "[34]": {"assay": "general cell-killing toxicity readout – plate reader, dry powder samples, cytotoxicity control for PAX8 inhibitor project, dose response (AID 743021)", "format": "functional, cell-based"}, "[35]": {"assay": "OVCAR8 cell viability loss – plate reader, dry powder samples, PAX8 project, dose response (AID 743197)", "format": "functional, cell-based", "conditions": "OVCAR-8"}},
  "note": "Active and inactive are the calls of the source.",
  "data": [
    {"smiles": "Fc1ccc(F)c(CN2CCN(c3ncccn3)CC2)c1", "values": [
      {"measurement": "EC50", "setting": "[1]", "result": "92.4 µM (inactive)"},
      {"measurement": "EC50", "setting": "[2]", "result": "0.323 µM (active)"}
    ]},
    {"smiles": "O=C(Nc1cc(N2CCCCC2)ncn1)c1cccs1", "values": [
      {"measurement": "IC50", "setting": "[3]", "result": "> 21.8 µM (inactive)"}
    ]},
    {"smiles": "Cc1c(/N=C(\\S)N/N=C/C=C/c2ccc([N+](=O)[O-])cc2)c(=O)n(-c2ccccc2)n1C", "values": [
      {"measurement": "IC50", "setting": "[4]", "result": "> 123 µM (inactive)"},
      {"measurement": "IC50", "setting": "[5]", "result": "> 123 µM (inactive)"}
    ]},
    {"smiles": "COc1cccc(C#Cc2ccc([C@H]3[C@@H](CO)N(C(=O)C4CCCC4)[C@H]3C#N)cc2)c1", "values": [
      {"measurement": "AC50", "setting": "[6]", "result": "17.8 µM (active)"},
      {"measurement": "AC50", "setting": "[7]", "result": "17 µM (active)"},
      {"measurement": "AC50", "setting": "[8]", "result": "3.15 µM (active)"},
      {"measurement": "AC50", "setting": "[9]", "result": "20 µM (active)"},
      {"measurement": "AC50", "setting": "[10]", "result": "30.8 µM (active)"},
      {"measurement": "AC50", "setting": "[11]", "result": "30.1 µM (active)"},
      {"measurement": "AC50", "setting": "[12]", "result": "37.9 µM (active)"},
      {"measurement": "AC50", "setting": "[13]", "result": "0.00447 µM (active)"},
      {"measurement": "AC50", "setting": "[14]", "result": "5.77 µM (active)"},
      {"measurement": "AC50", "setting": "[15]", "result": "0.409 µM (active)"},
      {"measurement": "AC50", "setting": "[16]", "result": "0.997 µM (active)"},
      {"measurement": "AC50", "setting": "[17]", "result": "0.212 µM (active)"},
      {"measurement": "AC50", "setting": "[18]", "result": "> 39 µM (inactive)"},
      {"measurement": "AC50", "setting": "[19]", "result": "0.454 µM (active)"}
    ]},
    {"smiles": "CN(C(=O)C12CC3CC(CC(C3)C1)C2)C1CCS(=O)(=O)C1", "note": "(stereo unspecified)", "values": [
      {"measurement": "AC50", "setting": "[20]", "result": "1.42 µM (active)"}
    ]},
    {"smiles": "COc1cc(/C=c2\\sc3n(c2=O)C(c2ccccc2)C(c2ccccc2)=NN=3)ccc1O", "note": "(stereo unspecified)", "values": [
      {"measurement": "AC50", "setting": "[21]", "result": "4.58 µM (active)"},
      {"measurement": "AC50", "setting": "[22]", "result": "38.5 µM (active)"},
      {"measurement": "IC50", "setting": "[23]", "result": "19.7 µM (active)"},
      {"measurement": "IC50", "setting": "[24]", "result": "57.3 µM (active)"}
    ]},
    {"smiles": "CCc1nc(N)nc(N)c1-c1ccc(Cl)c(N=[N+]=[N-])c1", "values": [
      {"measurement": "IC50", "setting": "[25]", "result": "24.1 µM (inactive)"},
      {"measurement": "IC50", "setting": "[26]", "result": "13.4 µM (active)"}
    ]},
    {"smiles": "O=C(Nc1nc2ccsc2c(=O)s1)c1ccc(F)cc1", "values": [
      {"measurement": "IC50", "setting": "[27]", "result": "5.11 µM (active)"},
      {"measurement": "IC50", "setting": "[25]", "result": "32 µM (inactive)"},
      {"measurement": "IC50", "setting": "[26]", "result": "11 µM (active)"}
    ]},
    {"smiles": "CCOc1cc(C2Nc3ccccc3C(=O)N2c2ccccc2)c(Br)cc1OCC(=O)O", "note": "(stereo unspecified)", "values": [
      {"measurement": "IC50", "setting": "[28]", "result": "10.1 µM (inactive)"},
      {"measurement": "IC50", "setting": "[29]", "result": "> 138 µM (inactive)"}
    ]},
    {"smiles": "O=[N+]([O-])c1cc(F)c2cccnc2c1O", "values": [
      {"measurement": "IC50", "setting": "[30]", "result": "12 µM (active)"},
      {"measurement": "AC50", "setting": "[31]", "result": "14.3 µM (active)"}
    ]},
    {"smiles": "COc1ccccc1C#Cc1ccc([C@H]2[C@H](C#N)N(C(=O)C3CC3)[C@H]2CO)cc1", "values": [
      {"measurement": "AC50", "setting": "[8]", "result": "6.37 µM (active)"},
      {"measurement": "AC50", "setting": "[32]", "result": "0.698 µM (active)"},
      {"measurement": "AC50", "setting": "[33]", "result": "15.1 µM (active)"},
      {"measurement": "AC50", "setting": "[34]", "result": "1.68 µM (active)"},
      {"measurement": "AC50", "setting": "[35]", "result": "10.7 µM (active)"}
    ]},
    {"smiles": "Cc1ccc(NC(=S)N(CCCN2CCOCC2)Cc2ccccn2)cc1", "values": [
      {"measurement": "AC50", "setting": "[34]", "result": "50.9 µM (active)"}
    ]},
    {"smiles": "O=C1NC[C@H](Cc2ccccc2)N(C[C@H]2CCCN2C[C@H](Cc2ccccc2)N2C[C@H](Cc3ccc(O)cc3)N(CC3CCCCCC3)C(=O)C2=O)C1=O", "values": [
      {"measurement": "IC50", "setting": "[23]", "result": "11.6 µM (active)"},
      {"measurement": "IC50", "setting": "[24]", "result": "37.5 µM (active)"}
    ]}
  ]
}
